ChEMBL document CHEMBL1124722, “Synthesis and anticonvulsant activity of 2-benzylglutarimides” (J Med Chem, 1990)
Calls of active or inactive are those of the source. The calls are words filed in the database; no cut-off is given here.

Assays:
Mus musculus [1] = organism: Mus musculus; experiment: (§1) Time of peak effect was determined for toxicity; format: functional
Rattus norvegicus [2] = experiment: The cytotoxicity after intraperitoneal administration in rat.; format: functional; conditions: ip
Mus musculus [3] = organism: Mus musculus; experiment: Time of peak effect was determined for activity in MES; format: functional; design: unit not given here
[4] = Median lethal dose was measured after 24 hr.; format: organism-based; conditions: mouse, in vivo
Mus musculus [5] = organism: Mus musculus; experiment: Median hypnotic dose by loss of righting reflex.; format: functional
Mus musculus [6] = organism: Mus musculus; experiment: Time of peak effect activity against maximal electroshock induced seizures; format: functional
Mus musculus [7] = organism: Mus musculus; experiment: Time of peak effect toxicity against maximal electroshock induced seizures; format: organism-based; conditions: in vivo
Mus musculus [8] = experiment: The effective dose of compound was tested against maximal electroshock induced seizures after oral administration in mice; format: functional
Mus musculus [9] = organism: Mus musculus; experiment: Median hypnotic dose by loss of righting reflex; format: functional
Mus musculus [10] = experiment: The compound was tested for anticonvulsant activity against (subcutaneous administered) strychnine induced seizures after intraperitoneal administration; format: functional
Mus musculus [11] = experiment: The compound was tested for anticonvulsant activity against (subcutaneous administered) Metrazol induced seizures after intraperitoneal administration; format: functional
Mus musculus [12] = experiment: The effective dose of compound was tested against maximal electroshock induced seizures after intraperitoneal administration; format: functional; conditions: ip
Mus musculus [13] = organism: Mus musculus; experiment: Median lethal dose was measured after 24 hr; format: functional
Rattus norvegicus [14] = experiment: The effective dose of compound was tested against subcutaneous administered Metrazol induced seizures in rat.; format: functional; conditions: sc
Mus musculus [15] = experiment: The effective dose of compound was tested against subcutaneous administered Metrazol induced seizures in mice; format: functional; conditions: sc
Mus musculus [16] = experiment: The effective dose of compound was tested against subcutaneous administered Metrazol induced seizures after intraperitoneal administration; format: functional
Mus musculus [17] = experiment: The effective dose of compound was tested against maximal electroshock induced seizures after intraperitoneal administration; no protection up to 1050 mg/kg; format: functional, organism-based; design: dose 1050 mg/kg
Mus musculus [18] = experiment: (§2) The Neurologic toxicity by measuring rotarod test after 0.5 h; Not active up to 300 mg/kg; format: organism-based; design: dose 300 mg/kg; conditions: in vivo
Mus musculus [19] = experiment: Anticonvulsant activity against subcutaneous administered Metrazol induced seizures (scMET) after 0.5 hr at 100 mg/kg; Active; format: functional, organism-based; design: dose 100 mg/kg
Mus musculus [20] = experiment: (§3) The Neurologic toxicity by measuring rotarod test after 4 hr; Not active up to 300 mg/kg; format: organism-based; design: dose 300 mg/kg; conditions: in vivo
[21] = The cytotoxicity after intraperitoneal administration; format: organism-based; conditions: mouse, in vivo, ip
Mus musculus [22] = experiment: Anticonvulsant activity against maximal electroshock induced seizures after 4 hr; Not active up to 300 mg/kg.; format: functional, organism-based; design: dose 300 mg/kg
Mus musculus [23] = experiment: Anticonvulsant activity against subcutaneous administered Metrazol induced seizures (scMET) after 4 hr at 100 mg/kg; Active; format: functional, organism-based; design: dose 100 mg/kg
Mus musculus [24] = organism: Mus musculus; experiment: as §1; format: organism-based; design: unit not given here; conditions: in vivo
Mus musculus [25] = experiment: Anticonvulsant activity against maximal electroshock induced seizures (MES) after 0.5 h; Not active up to 300 mg/kg; format: functional, organism-based; design: dose 300 mg/kg
[26] = Protective index was calculated (TD50/ED50) in scMET assay in mice after intraperitoneal administration; format: functional
Mus musculus [27] = experiment: Anticonvulsant activity against maximal electroshock induced seizures (MES) after 0.5 hr at 300 mg/kg; Active; format: functional, organism-based; design: dose 300 mg/kg
Mus musculus [28] = experiment: Anticonvulsant activity against subcutaneous administered Metrazol induced seizures (scMET) after 0.5 hr; Not active up to 300 mg/kg; format: functional, organism-based; design: dose 300 mg/kg
Mus musculus [29] = experiment: Anticonvulsant activity against subcutaneous administered Metrazol induced seizures (scMET) after 4 hr up to 300 mg/kg; format: functional, organism-based; design: dose 300 mg/kg
Mus musculus [30] = experiment: The Neurologic toxicity by measuring rotarod test after 0.5 h up to 300 mg/kg; format: functional, organism-based; design: dose 300 mg/kg
Mus musculus [31] = experiment: The Neurologic toxicity by measuring rotarod test after 4 hr up to 300 mg/kg; format: functional, organism-based; design: dose 300 mg/kg
Mus musculus [32] = experiment: The Neurologic toxicity by measuring rotarod after 4 hr; No toxicity up to 300 mg/kg; format: organism-based; design: dose 300 mg/kg; conditions: in vivo
Mus musculus [33] = experiment: The Neurologic toxicity by measuring rotarod test after 0.5 h; No toxicity up to 300 mg/kg; format: organism-based; design: dose 300 mg/kg; conditions: in vivo
Mus musculus [34] = experiment: Anticonvulsant activity against subcutaneous administered Metrazol induced seizures (scMET) after 4 hr at 300 mg/kg; Active; format: functional, organism-based; design: dose 300 mg/kg
Mus musculus [35] = experiment: as §2; format: functional, organism-based; design: dose 300 mg/kg
Mus musculus [36] = experiment: Anticonvulsant activity against subcutaneous administered Metrazol induced seizures (scMET) after 4 hr; Not active up to 300 mg/kg; format: functional, organism-based; design: dose 300 mg/kg
Mus musculus [37] = experiment: as §3; format: functional, organism-based; design: dose 300 mg/kg
in vivo = conditions: rat, ip
Mus musculus [38] = experiment: The compound was tested for anticonvulsant activity against (subcutaneous administered) Metrazol induced seizures after intraperitoneal administration; No protection up to 100 mg/kg; format: functional, organism-based; design: dose 100 mg/kg
Rattus norvegicus [39] = experiment: The effective dose of compound was tested against maximal electroshock induced seizures after oral administration in rat; format: functional
Rattus norvegicus [40] = experiment: The effective dose of compound was tested against subcutaneous administered Metrazol induced seizures in rat; Not effective; format: functional, organism-based
Mus musculus [41] = experiment: The compound was tested for anticonvulsant activity against (subcutaneous administered) bicuculline induced seizures after intraperitoneal administration; Protected at 100 mg/ kg; format: functional, organism-based; design: dose 100 mg/ kg
Mus musculus [42] = experiment: The effective dose of compound was tested against subcutaneous administered Metrazol induced seizures after intraperitoneal administration; Not effective; format: functional, organism-based

CCC1(c2ccccc2)C(=O)NC(=O)NC1=O [PHENOBARBITAL]
TPE (Mus musculus [1]): 0.5
ED50 (Rattus norvegicus [2]): 61.1 mg/kg
TPE (Mus musculus [3]): 1
LD50 at 24 h [4]: 265 mg/kg
HD50 (Mus musculus [5]): 135.45 mg/kg
Activity (Mus musculus [6]): 1 h
Time of peak effect (Mus musculus [7]): 0.5 h

CCCC(CCC)C(=O)O [VALPROIC ACID]
ED50 (Mus musculus [8]): 665 mg/kg
HD50 (Mus musculus [9]): 885.53 mg/kg
ED50 (Mus musculus [10]): 293 mg/kg
ED50 (Mus musculus [11]): 149 mg/kg
ED50 (Mus musculus [12]): 272 mg/kg
LD50 (Mus musculus [13]): 1100 mg/kg
ED50 (Rattus norvegicus [14]): 180 mg/kg
ED50 (Mus musculus [15]): 388 mg/kg
Activity (Mus musculus [6]): 0.25
ED50 (Mus musculus [16]): 149 mg/kg
Time of peak effect (Mus musculus [7]): 0.25

CN1C(=O)CCC(Cc2ccc(Cl)cc2Cl)C1=O (stereo not drawn)
ED50 (Mus musculus [17]): no protection up to 1050 mg/kg
Toxicity (Mus musculus [18]): Not Active
Activity (Mus musculus [19]): Active
Toxicity (Mus musculus [20]): Not Active
TD50 [21]: 650 mg/kg
Activity (Mus musculus [22]): inactive
Activity (Mus musculus [23]): Active
TPE (Mus musculus [3]): 0.5
TPE (Mus musculus [24]): 2
Activity (Mus musculus [25]): inactive
Ratio [26]: 4.24
ED50 (Mus musculus [16]): 153 mg/kg

O=C1CCC(Cc2ccccc2)C(=O)N1 (stereo not drawn)
Activity (Mus musculus [27]): Active
Activity (Mus musculus [22]): inactive
Activity (Mus musculus [28]): inactive
Activity (Mus musculus [29]): inactive
Toxicity (Mus musculus [30]): inactive
Toxicity (Mus musculus [31]): inactive

COc1ccc(CC2CCC(=O)NC2=O)cc1 (stereo not drawn)
Toxicity (Mus musculus [32]): No toxicity up to 300 mg/kg
Activity (Mus musculus [22]): inactive
Activity (Mus musculus [28]): inactive
Toxicity (Mus musculus [33]): No toxicity up to 300 mg/kg
Activity (Mus musculus [25]): inactive
Activity (Mus musculus [34]): Active

CN1C(=O)CCC(Cc2ccc([Si](C)(C)C)cc2)C1=O (stereo not drawn)
Toxicity (Mus musculus [35]): inactive
Activity (Mus musculus [22]): inactive
Activity (Mus musculus [36]): inactive
Activity (Mus musculus [28]): inactive
Toxicity (Mus musculus [37]): inactive
Activity (Mus musculus [25]): inactive

NC(=O)N1c2ccccc2C=Cc2ccccc21 [CARBAMAZEPINE]
HD50 (Mus musculus [9]): 172.24 mg/kg
TD50 (in vivo): 813 mg/kg
LD50 (Mus musculus [13]): 629 mg/kg
ED50 (Mus musculus [38]): inactive
ED50 (Rattus norvegicus [39]): 8.5 mg/kg
ED50 (Rattus norvegicus [40]): inactive
TPE (Mus musculus [6]): 0.25
ED50 (Mus musculus [41]): Active
ED50 (Mus musculus [42]): inactive
TPE (Mus musculus [7]): 0.25
